{
  "source": "patent US7465558B2",
  "about": "“Perfusion system and apparatus for automated multi-channel patch-clamp recordings utilizing inside-out whole-cell configuration” (Wyeth, priority 2004, dated 2008)",
  "test_system": "outward potassium currents",
  "assay": "inside-out whole-cell patch clamp recording of outward potassium currents",
  "type": "cell-based",
  "description": "These currents were elicited by a test voltage of+40 mV preceded by a 500 ms long prepulse to−110 mV from a holding potential of−70 mV. […] Current traces were obtained in 5 minute time intervals.\nFIG. 14 illustrates a graph showing outward potassium currents with test compounds according to an embodiment of the invention. […] Each test increment followed a 0.5 second long hyperpolarizing prepulse to−110 mV, while keeping the membrane potential at−70 mV between pulses. In the first (left-most) plot, measurements of current were taken while the cell was bathed in a control solution. The cell was then placed in a 10 mM 4-AP bath solution, and the measurements of the second (middle) plot were recorded. The chemical called 4-AP is a pharmacological blocker of these ion channels. The cell was then washed of the 4-AP solution, and the cell was again bathed in the control solution. Measurements were recorded as in the first and second plots, and the results are shown in the third (right-most) plot. For purposes of an inside-out whole cell patch clamp measurement, the control and 4-AP baths represented the intracellular region.\nFIG. 15 illustrates a graph showing potassium current amplitude (I) behavior as a function of applied membrane voltages (V) according to an embodiment of the invention. […] Here, the black square points correspond to the left-most plot in FIG. 14, the black circles correspond to the center plot of FIG. 14 showing the reduced potassium current in the presence of 10 mM 4-AP bath solution, and the white circles correspond to measurements after the 4-AP was washed away in the right-most plot of FIG. 14.\nThis current is approximately 50% lower than in the left and right plots, which correspond to measurements in the control solution before and after drug action, respectively.",
  "note": "“Also recorded” adds a separate entry of the source.",
  "data": [
    {"compound": "Nc1ccncc1", "note": "[4-AP]", "values": [
      {"measurement": "block of potassium current amplitude", "setting": "10 mM 4-AP bath solution representing the intracellular region, first cell, FIG. 14", "result": "about 50%"},
      {"measurement": "current across the membrane relative to current in control solution", "setting": "10 mM 4-AP bath solution, first cell, current amplitude versus membrane voltage, FIG. 15", "result": "less than 50%"},
      {"measurement": "reversibility of the effect with wash-out perfusion", "setting": "first cell, after washing and return to control solution, FIG. 14/15", "result": "fully (or at least substantially) reversible; also recorded: reversible process"},
      {"measurement": "current lower than in control solution before and after drug action", "setting": "second cell, in the presence of 4-AP, FIG. 16", "result": "approximately 50%"},
      {"measurement": "current amplitude after washing compared with control substance", "setting": "second cell, wash-out, FIG. 17", "result": "nearly equal"}
    ]}
  ]
}
